# Measurements published in article PMC6880192, “Structure–Effect Relationships of Novel Semi-Synthetic Cannabinoid Derivatives” (Frontiers in Pharmacology, 2019).
# Target: T1, CB1-receptor (Homo sapiens, UniProt P21554)
# T1 construct: expressed in transfected cells; host or cells: CHO cells, stably transfected with CB1 cDNA (from IMIBIC) and transiently with CRE-luc
# Assay: biochemical
# Assay type: binding
# Details: mean ± SEM, n = 3; radioligand [3H]-CP55940
# T1 sequence (P21554 whole entry): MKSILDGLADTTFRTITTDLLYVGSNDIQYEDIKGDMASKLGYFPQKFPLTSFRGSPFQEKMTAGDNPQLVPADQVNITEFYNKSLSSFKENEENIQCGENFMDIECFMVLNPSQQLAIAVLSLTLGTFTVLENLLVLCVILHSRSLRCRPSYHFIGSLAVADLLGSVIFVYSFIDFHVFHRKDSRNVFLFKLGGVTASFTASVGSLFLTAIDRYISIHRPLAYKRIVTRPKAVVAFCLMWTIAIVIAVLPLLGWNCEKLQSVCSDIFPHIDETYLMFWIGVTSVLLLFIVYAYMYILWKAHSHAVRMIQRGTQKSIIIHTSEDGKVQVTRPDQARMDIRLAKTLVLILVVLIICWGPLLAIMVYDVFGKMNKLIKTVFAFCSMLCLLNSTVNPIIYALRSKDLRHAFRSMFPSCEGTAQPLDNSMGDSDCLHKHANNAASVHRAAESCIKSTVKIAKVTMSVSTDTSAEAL
row,SMILES,Ki [nM]
1,"C=C(C)[C@@H]1CCC(C)=C[C@H]1c1c(O)cc(CCC)c(C(=O)OCCO)c1O [2-HECBDV (7), 2-hydroxyethyl cannabidivarinolate]",5650
2,"C=C(C)[C@@H]1CCC(C)=C[C@H]1c1c(O)cc(CCCCC)c(C(=O)OC2CCCCC2)c1O [CHC (4), cyclohexyl cannabidiolate]",870 ± 100
3,"C=C(C)[C@@H]1CCC(C)=C[C@H]1c1c(O)cc(CCC)c(C(=O)OC2CCCCC2)c1O [CHCBDV (8), cyclohexyl cannabidivarinolate]",13.2 ± 0.9
4,"C=C(C)[C@@H]1CCC(C)=C[C@H]1c1c(O)cc(CCCCC)c(C(=O)OCCCCCC)c1O [HC (5), n-hexyl-cannabidiolate]",2500

# Target: T2, CB2-receptor (Homo sapiens, UniProt P34972)
# T2 construct: expressed in transfected cells; host or cells: CHO cells, stably transfected with CB2 cDNA (from IMIBIC) and transiently with CRE-luc
# T2 sequence (P34972 whole entry): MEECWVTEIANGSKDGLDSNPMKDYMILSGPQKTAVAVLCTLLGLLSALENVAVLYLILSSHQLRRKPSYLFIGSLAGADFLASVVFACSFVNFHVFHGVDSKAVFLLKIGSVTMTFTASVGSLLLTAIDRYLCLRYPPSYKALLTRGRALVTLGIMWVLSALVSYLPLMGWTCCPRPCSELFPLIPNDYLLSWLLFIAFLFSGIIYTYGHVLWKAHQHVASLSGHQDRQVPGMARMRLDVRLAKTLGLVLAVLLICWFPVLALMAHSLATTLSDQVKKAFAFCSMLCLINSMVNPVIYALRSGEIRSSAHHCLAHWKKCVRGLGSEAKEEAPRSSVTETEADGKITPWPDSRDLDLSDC
# Assay: Competition binding against [3H]-CP55940, CB2 membranes
# Details: mean ± SEM, n = 3; radioligand [3H]-CP55940
row,SMILES,Ki [nM]
1,"C=C(C)[C@@H]1CCC(C)=C[C@H]1c1c(O)cc(CCC)c(C(=O)OCCO)c1O [2-HECBDV (7), 2-hydroxyethyl cannabidivarinolate]",168 ± 39.4
2,"C=C(C)[C@@H]1CCC(C)=C[C@H]1c1c(O)cc(CCCCC)c(C(=O)OC2CCCCC2)c1O [CHC (4), cyclohexyl cannabidiolate]",510 ± 290
3,"C=C(C)[C@@H]1CCC(C)=C[C@H]1c1c(O)cc(CCC)c(C(=O)OC2CCCCC2)c1O [CHCBDV (8), cyclohexyl cannabidivarinolate]",4.62 ± 0.5
4,"C=C(C)[C@@H]1CCC(C)=C[C@H]1c1c(O)cc(CCCCC)c(C(=O)OCCCCCC)c1O [HC (5), n-hexyl-cannabidiolate]",67 ± 4

# Same assay, conditions: ratio of Ki values
row,SMILES,Selectivity CB2/CB1
1,"C=C(C)[C@@H]1CCC(C)=C[C@H]1c1c(O)cc(CCC)c(C(=O)OCCO)c1O [2-HECBDV (7), 2-hydroxyethyl cannabidivarinolate]",33.6
2,"C=C(C)[C@@H]1CCC(C)=C[C@H]1c1c(O)cc(CCCCC)c(C(=O)OC2CCCCC2)c1O [CHC (4), cyclohexyl cannabidiolate]",1.7
3,"C=C(C)[C@@H]1CCC(C)=C[C@H]1c1c(O)cc(CCC)c(C(=O)OC2CCCCC2)c1O [CHCBDV (8), cyclohexyl cannabidivarinolate]",2.9
4,"C=C(C)[C@@H]1CCC(C)=C[C@H]1c1c(O)cc(CCCCC)c(C(=O)OCCCCCC)c1O [HC (5), n-hexyl-cannabidiolate]",37.3

# Target: T1, CB1-receptor
# Assay: cAMP-dependent luciferase assay in CHO-CB1-CRE-luc cells
# Assay type: cell-based
# Details: 15 min pre-incubation, then 1 µmol/L WIN for 6 h
# Method: (§1) Briefly, CHO cells were stably transfected with CB1- and CB2-receptor complementary DNAs (cDNAs) (kindly provided by IMIBIC). Around 10^5 transfected cells per milliliter were seeded in 24-well plates and transiently transfected with the plasmid CRE-luc using Roti-Fect (Carl Roth, Karlsruhe) following the manufacturer’s instructions. The cells were harvested after 24 h. Two transfected cell types resulted: CHO-CB1-CRE-luc and CHO-CB2-CRE-luc.
# (§2) To test for agonistic activity at the CB1-receptor, the CHO-CB1-CRE-luc cells were stimulated for 6 h with increasing concentrations of the test compounds ([Bouaboula et al. 1997]). Forskolin (FSK), a strong CB-receptor-independent activator of adenylyl-cyclase was used at 10 µmol/L as a positive control. To investigate the antagonistic activity, the CHO-CB1-CRE-luc cells were pre-incubated for 15 min with the test compounds before stimulation for 6 h with 1 µmol/L WIN ([Zheng et al. 2013]). To investigate CB2-receptor agonistic activity, CHO-CB2-CRE-luc cells were pre-incubated for 15 min with increasing concentrations of the test substances and then for 6 h with 10 µmol/L FSK. WIN, a non-specific agonist at CB2-receptors, was used as a positive control. To confirm CB2-receptor agonistic activities of the test compounds, CHO-CB2-CRE-luc cells were pre-incubated with the specific CB2-receptor antagonist AM630 (1 µmol/L, 6-iodopravadoline; Cayman, distributed by Biozol, Hamburg) ([Ross et al. 1999]; [Zheng et al. 2013]) and then treated with increasing concentrations of the test substances.
# (§3) After the stimulations and incubations, cells were lysed in a solution of 25 mmol Tris-phosphate (pH = 7.8), 8 mmol MgCl2, 1 mmol dithiothreitol (DTT), 1% Triton X-100, and 7% glycerol. The luciferase activity was measured with a Luciferase Assay Kit (Promega, Madison) according to the manufacturer’s instructions using an AutoLumat LB 9501 (Berthold Technologies, Bad Wildbad).
row,SMILES,CB1-receptor antagonistic activity (fold induction of CRE-luc)
1,"C=C(C)[C@@H]1CCC(C)=C[C@H]1c1c(O)cc(CCCCC)c(C(=O)OC2CCCCC2)c1O [CHC (4), cyclohexyl cannabidiolate]",negative
2,"C=C(C)[C@@H]1CCC(C)=C[C@H]1c1c(O)cc(CCCCC)c(C(=O)OCCCCCC)c1O [HC (5), n-hexyl-cannabidiolate]",dose-dependent activity

# Same assay, conditions: 6 h stimulation with test compound
row,SMILES,CB1-receptor agonistic activity (fold induction of CRE-luc)
1,"C=C(C)[C@@H]1CCC(C)=C[C@H]1c1c(O)cc(CCCCC)c(C(=O)OC2CCCCC2)c1O [CHC (4), cyclohexyl cannabidiolate]",activate CB1-receptors
2,"C=C(C)[C@@H]1CCC(C)=C[C@H]1c1c(O)cc(CCC)c(C(=O)OC2CCCCC2)c1O [CHCBDV (8), cyclohexyl cannabidivarinolate]",non-selective agonism

# Same assay, conditions: CHO-CB1-CRE-luc, summary classification
row,SMILES,Effect on CB1
1,"C=C(C)[C@@H]1CCC(C)=C[C@H]1c1c(O)cc(CCC)c(C(=O)OCCO)c1O [2-HECBDV (7), 2-hydroxyethyl cannabidivarinolate]",Antagonist
2,"C=C(C)[C@@H]1CCC(C)=C[C@H]1c1c(O)cc(CCCCC)c(C(=O)OC2CCCCC2)c1O [CHC (4), cyclohexyl cannabidiolate]",Agonist
3,"C=C(C)[C@@H]1CCC(C)=C[C@H]1c1c(O)cc(CCC)c(C(=O)OC2CCCCC2)c1O [CHCBDV (8), cyclohexyl cannabidivarinolate]",Agonist
4,"C=C(C)[C@@H]1CCC(C)=C[C@H]1c1c(O)cc(CCCCC)c(C(=O)OCCCCCC)c1O [HC (5), n-hexyl-cannabidiolate]",Antagonist

# Target: T2, CB2-receptor
# Assay: cAMP-dependent luciferase assay in CHO-CB2-CRE-luc cells
# Assay type: cell-based
# Details: 15 min pre-incubation, then 10 µmol/L FSK for 6 h
# Method: as §1, §2, §3
row,SMILES,CB2-receptor agonistic activity (fold induction of CRE-luc)
1,"C=C(C)[C@@H]1CCC(C)=C[C@H]1c1c(O)cc(CCC)c(C(=O)OCCO)c1O [2-HECBDV (7), 2-hydroxyethyl cannabidivarinolate]",dose-dependent agonistic effects
2,"C=C(C)[C@@H]1CCC(C)=C[C@H]1c1c(O)cc(CCC)c(C(=O)OC2CCCCC2)c1O [CHCBDV (8), cyclohexyl cannabidivarinolate]",non-selective agonism
3,"C=C(C)[C@@H]1CCC(C)=C[C@H]1c1c(O)cc(CCCCC)c(C(=O)OCCCCCC)c1O [HC (5), n-hexyl-cannabidiolate]",did not activate

# Same assay, conditions: CHO-CB2-CRE-luc, summary classification
row,SMILES,Effect on CB2
1,"C=C(C)[C@@H]1CCC(C)=C[C@H]1c1c(O)cc(CCC)c(C(=O)OCCO)c1O [2-HECBDV (7), 2-hydroxyethyl cannabidivarinolate]",Agonist
2,"C=C(C)[C@@H]1CCC(C)=C[C@H]1c1c(O)cc(CCCCC)c(C(=O)OC2CCCCC2)c1O [CHC (4), cyclohexyl cannabidiolate]",Agonist
3,"C=C(C)[C@@H]1CCC(C)=C[C@H]1c1c(O)cc(CCC)c(C(=O)OC2CCCCC2)c1O [CHCBDV (8), cyclohexyl cannabidivarinolate]",Agonist
4,"C=C(C)[C@@H]1CCC(C)=C[C@H]1c1c(O)cc(CCCCC)c(C(=O)OCCCCCC)c1O [HC (5), n-hexyl-cannabidiolate]",No activity

# Same assay, conditions: same dose as 1 µmol/L WIN
row,SMILES,CB2 agonistic effect compared with positive control WIN
1,"C=C(C)[C@@H]1CCC(C)=C[C@H]1c1c(O)cc(CCCCC)c(C(=O)OC2CCCCC2)c1O [CHC (4), cyclohexyl cannabidiolate]",as strong as the same dose of the positive control

# Test system: NFAT
# Assay: PMA/IO-induced NFAT-luc activation in Jurkat T-cells
# Assay type: cell-based
# Details: 0.5–25 µmol/L
# Method: (§4) Jurkat T-cells (10^6 cells per milliliter) were transiently transfected with plasmids that contained an NF-κB-dependent (KBF-luc) or NFAT-dependent (NFAT-luc) promotors fused to the luciferase gene using Lipofectin (Life Technologies, Carlsbad) according to the manufacturer’s instructions ([Yano et al. 1987]; [Durand et al. 1988]). Twenty-four hours after transfection, cells were stimulated for 30 min with increasing doses of the test compounds or WIN as a control (Tocris, Bristol). Then PMA (50 ng/ml)—for NFAT-luc—plus ionomycin (0.5 µg/ml) (Sigma-Aldrich, St. Louis) was added, followed by a 6 h incubation period.
# as §3
row,SMILES,Inhibition of PMA/IO-induced NFAT activation
1,"C=C(C)[C@@H]1CCC(C)=C[C@H]1c1c(O)cc(CCCCC)c(C(=O)OC2CCCCC2)c1O [CHC (4), cyclohexyl cannabidiolate]",did not inhibit
2,"C=C(C)[C@@H]1CCC(C)=C[C@H]1c1c(O)cc(CCCCC)c(C(=O)OCCCCCC)c1O [HC (5), n-hexyl-cannabidiolate]",no inhibition

# Test system: NF-κB
# Assay: PMA-induced NF-κB-luc (KBF-luc) activation in Jurkat T-cells
# Assay type: cell-based
# Details: 0.5–25 µmol/L
# Method: as §4, §3
row,SMILES,Inhibition of PMA-induced NF-κB activation
1,"C=C(C)[C@@H]1CCC(C)=C[C@H]1c1c(O)cc(CCCCC)c(C(=O)OC2CCCCC2)c1O [CHC (4), cyclohexyl cannabidiolate]",did not inhibit
2,"C=C(C)[C@@H]1CCC(C)=C[C@H]1c1c(O)cc(CCCCC)c(C(=O)OCCCCCC)c1O [HC (5), n-hexyl-cannabidiolate]",only marginal

# Test system: RAW264.7 macrophages
# Assay: IL-17-induced polarization to pro-inflammatory M1 macrophages (qPCR)
# Assay type: cell-based
# Details: RAW264.7, 0.5 to 10 µmol/L
# Method: To assess the IL-17-induced polarization to pro-inflammatory M1 macrophages, RAW264.7 macrophages (10^6 cells per Petri dish) were incubated for 18 h with or without the test compounds containing 0.1% FBS. Subsequently, they were stimulated for 24 h with recombinant murine IL-17 (50 ng/ml; R&D Systems, Minneapolis). The CB2-receptor agonist JWH-133 was used as a positive control. Then, the messenger RNA (mRNA) was extracted using RNeasy Mini Kits (Qiagen, Hilden), and its purity determined by UV measurements at 260 and 280 nm. The induction of IL-6, IL-1β, CC-chemokine ligand 2 (CCL2), and tumor necrosis factor (TNF)-α mRNA was assessed as markers of pro-inflammatory activity using quantitative real-time polymerase chain reactions (qPCRs).
# mRNA reverse transcription in cDNA was performed with iQ™ SYBR Green Supermix and the CFX96 real-time PCR system (Bio-Rad, Hercules). The amplification consisted of a 5 min denaturation at 95°C followed by 40 cycles each of 30 s at 95°C and 30 s at 55°C (annealing). Elongation for 30 s at 72°C came next, followed by a cycle for 10 s at 83°C and finally a cycle for 1 min at 72°C. Calculations were made according to the Livak method by quantifying glyceraldehyde 3-phosphate dehydrogenase (GAPDH) as a reference ([Schmittgen and Livak 2008]). The results are given as multiples of the reference gene ([…]).
SMILES,IL-17-stimulated CCL2 mRNA expression,IL-17-stimulated IL-1β mRNA expression,IL-17-stimulated IL-6 mRNA expression
"C=C(C)[C@@H]1CCC(C)=C[C@H]1c1c(O)cc(CCCCC)c(C(=O)OC2CCCCC2)c1O [CHC (4), cyclohexyl cannabidiolate]",inhibited,inhibited,
"C=C(C)[C@@H]1CCC(C)=C[C@H]1c1c(O)cc(CCCCC)c(C(=O)OCCCCCC)c1O [HC (5), n-hexyl-cannabidiolate]",inhibited,inhibited,dose-dependent reduction

# Test system: primary human monocytes
# Assay: Anti-inflammatory effect on LPS-treated monocytes (ELISA)
# Assay type: cell-based
# Details: LPS 10 ng/ml, 24 h
# Method: Human peripheral blood monocytes were prepared from healthy donors who provided written informed consent at the local blood bank (University Hospital of Freiburg, Germany). Mononuclear cells were isolated by density gradient centrifugation according to standard protocol ([English and Andersen, 1974]) using lymphocyte separation medium, (PAN Biotech, Aidenbach). Cells were resuspended in RPMI-1640 medium (Invitrogen/Thermo Fisher Scientific, Karlsruhe) containing 10% human serum (Hexacell, Berlin). About 5 × 10^5 cells per milliliter were seeded in 24-well plates and incubated at 37°C and 5% CO2. The medium and the non-adherent cells were removed by washing with PBS and fresh RPMI medium, and 1% human serum was added to each well.
# To test the anti-inflammatory effect of the test compounds, monocytes were incubated for 30 min with increasing doses of the test compounds. Then lipopolysaccharide (LPS) (10 ng/ml; Escherichia coli, Sigma-Aldrich, St. Louis) was added followed by a 24 h incubation period. The supernatants were removed and the levels of IL-1β, IL-6, IL-8, TNF-α, and prostaglandin E2 (PGE2) determined by enzyme-linked immunosorbent assay (ELISA) performed according to the manufacturer’s instructions (IL-1β from Hiss, Freiburg; IL-6, IL-8, and TNF-α from ImmunoTools, Friesoythe; and PGE2 from Cayman, distributed by Biozol, Hamburg). Stimulation with LPS alone was considered 100%.
SMILES,Anti-inflammatory effects overall,LPS-induced IL-1β release,LPS-induced IL-6 release,LPS-induced IL-8 release,LPS-induced TNF-α release
"C=C(C)[C@@H]1CCC(C)=C[C@H]1c1c(O)cc(CCCCC)c(C(=O)OC2CCCCC2)c1O [CHC (4), cyclohexyl cannabidiolate]",only very weak anti-inflammatory effects,reduced,moderately and dose-dependently inhibited,moderately and dose-dependently inhibited,reduced
"C=C(C)[C@@H]1CCC(C)=C[C@H]1c1c(O)cc(CCCCC)c(C(=O)OCCCCCC)c1O [HC (5), n-hexyl-cannabidiolate]",,inhibited at higher doses,dose-dependently inhibited,inhibited at higher doses,dose-dependently inhibited
